# Measurements taken from patent US12611406B2, “Oxopiperazine derivatives for the treatment of cancer” (Inthera Bioscience AG, priority 2020, dated 2026).
# Where two headings read alike, the source gives them in different places.
# Columns and labels:
# [1] = Metabolic stability in intestinal microsomes; type: in vitro ADME; settings: monkey compared to human
# Protocol: In vitro testing also supports the use of mouse, Beagle dog, and cynomolgus monkey models to assay dosing and effectiveness of Compound 1. […] The metabolic profiles of hepatocytes from mouse, dog, and monkey that were cultured with Compound 1 were assessed. Similarly, the metabolic stability of Compound 1 was assayed in vitro using intestinal microsomes from mouse, rat, dog, monkey, and humans.
# [2] = tested on: PR6511; experiment: PR6511 mouse PDX prostate cancer model, daily oral; type: in vivo
# Protocol: PR6511 represents a model which was not responsive any more to enzalutamide treatment. The dose in the 10 mg/kg group was reduced to 3 mg/kg from day 51 onwards. […] QD: once daily treatment. po: per os.
# Due to weight loss, animals of the 10 mg/kg group received a reduced dose of 3 mg/kg on study days 51 to 57.
# [3] = Single dose oral and intravenous PK in CD-1 mice (mesylate salt), blood; type: in vivo; design: AUC(0-t) / AUC(0-inf): unit not given here; settings: male, CD-1, mouse, whole blood
# Protocol: These studies analyzed the PK profile of Compound 1 following a single oral gavage or single intravenous dose to CD-1 mice.
# Compound 1 (mesylate salt) was administered to four groups of male mice (n=4/group) as a single oral (po) gavage administration at dose levels of 5, 10, 20, and 50 mg/kg/adm or as single intravenous (IV) dose at 5 and 50 mg/kg/adm. The vehicle was 1% methylcellulose with 0.1% Tween-80 in study AMP800 and 5% dextrose in water in study AMP799. Blood samples were collected at pre-dose, 10 minutes, 40 minutes, 2, 4, and 7 hours after administration for analysis of Compound 1 concentrations in blood by liquid chromatography—tandem mass spectroscopy (LC-MS/MS) and subsequent calculation of PK parameters.
# [4] = tested on: 22Rv1; experiment: 22Rv1 prostate cancer CDX mouse model; type: in vivo
# Description: Left panel: Tumor growth curves. Right panel: Body weight development. The respective dosing regimen is indicated as bars below the x-axis. QD: once daily treatment; po: per os.
# Left panel: Tumor growth curves. Right panel: Body weight development. The dosing regimen is indicated as dots below the curves. BID: twice daily treatment. QW: once weekly treatment. p.o.: per oral.
# NCI-H660 cells represent a rather far advanced PC type in which not only the tumor suppressor functions of Rb1 and p53 have been lost (see Table 1). Furthermore, the cells already have developed a small cell phenotype characteristic of advanced treatment-resistant PC. In contrast, 22Rv1 tumor cells that are wild-type for Rb1 and p53 pathways were less sensitive to Compound 1 treatment when a once weekly dosing scheme was used.
# Values larger than 100% indicate tumor regression.
# [5] = tested on: A549 NSCLC cells; experiment: Cell cycle FACS analysis; type: cell-based; settings: A549, wild-type Rb and p53; 20 or 200 nM, 24 h
# Protocol: (§1) Cell cycle phase distribution in control (C) cells or cells treated at 20 or 200 nM Compound 1 for 24 hours (24 h) determined by fluorescence activated cell sorting (FACS) analysis, and detection of histone H2A variant H2A.X phosphorylation (γH2A.X, also referred to herein as gamma H2A.X or γH2A.X) by Western blot as DNA damage biomarker.
# (§2) In FIG. 3A, protein amounts were normalized using total protein load with ImageLab 6.0 Software (BioRad).
# [6] = Plasma protein binding, equilibrium dialysis; type: in vitro ADME; settings: 37° C, buffer pH 7.4, read-out: Fraction unbound (Fu), Mean
# Protocol: Protein binding of Compound 1 to the plasma from several species, i.e., human, cynomolgus monkey, dog, rat, and mouse was investigated in vitro by incubation in plasma and determination of unbound fraction of Compound 1 using equilibrium dialysis. Compound 1 was incubated in 100% species-specific plasma and added to one side of the membrane in an equilibrium dialysis system while buffer (pH 7.4) is added to the other side. The system was allowed to reach equilibrium at 37° C. Compound concentration on both sides of the membrane is measured by liquid chromatography—tandem mass spectroscopy (LC-MS/MS).
# [7] = tested on: DU-145; experiment: γH2A.X Western blot (DNA damage biomarker); type: cell-based; settings: 20 or 200 nM, 24 h
# Protocol: as §1
# (§3) The observed accumulation of DNA damage upon tumor cell exposure to Compound 1, measured as an increase of the DNA damage biomarker γH2A.X (FIG. 3A), is in line with reports of p300/CBP being involved in DNA replication and DNA damage repair (DDR). […] Among these DDR proteins are ATR (ataxia telangiectasia and Rad3-related), which controls crucial cell cycle and repair checkpoints, but also nibrin (NBS1), and poly(ADP-ribose) polymerase 1 (PARP-1).
# as §2
# [8] = tested on: NCI-H82; experiment: γH2A.X Western blot (DNA damage biomarker); type: cell-based; settings: 20 or 200 nM, 24 h
# Protocol: as §1, §3, §2
# [9] = tested on: NCI-H69; experiment: γH2A.X Western blot (DNA damage biomarker); type: cell-based; settings: 20 or 200 nM, 24 h
# Protocol: as §1, §3, §2
# [10] = tested on: DU-145 cells; experiment: Annexin V staining; type: cell-based
# [11] = 10 mg/kg (3 mg/kg on days 51-57) once daily
structure (smiles),measurement,setting,value
"CC(C)C[C@@H]1NCCN([C@@H](CC(C)C)C(=O)N2CCC3(C[C@@H]2C)OCC(CN2CCCC2)CO3)C1=O (stereo partly drawn) [Compound 1, (S)-3-isobutyl-1-((S)-4-methyl-1-((S)-8-methyl-3-(pyrrolidin-1-ylmethyl)-1,5-dioxa-9-azaspiro[5.5]undecan-9-yl)-1-oxopentan-2-yl)piperazin-2-one]",stability in intestinal microsomes,[1],lower stability
same,complete responders,[2]; 6 mg/kg once daily,3/8
same,partial responder,[2]; 6 mg/kg once daily,2/8
same,tumor-free survivors,[2]; 6 mg/kg once daily,3/8
same,complete responders,[2]; [11],4/8
same,partial responders,[2]; [11],2/8
same,tumor-free survivors,[2]; [11],3/8
same,tumor response,"[2]; 10 mg/kg for approx. 8-10 days, then breaks/3 mg/kg days 51-57",full tumor regressions
same,tumor re-growth,"[2]; 3 weeks after end of treatment, fully regressed tumors",no re-growth of tumors
same,tumor response,"[2]; 6 or 10 mg/kg daily oral, study days 38-57",substantial tumor regressions up to erradication of tumors
same,PSA in blood,[2]; PR6511,effective PSA reduction
same,AUC(0-inf),[3]; intravenous 5 mg/kg,1.11
same,AUC(0-t),[3]; intravenous 5 mg/kg,1.03
same,Tmax,[3]; intravenous 5 mg/kg,10.2 min
same,half-life,[3]; intravenous 5 mg/kg,138 min
same,AUC(0-inf),[3]; intravenous 50 mg/kg,13
same,AUC(0-t),[3]; intravenous 50 mg/kg,12.2
same,Tmax,[3]; intravenous 50 mg/kg,10.2 min
same,half-life,[3]; intravenous 50 mg/kg,96 min
same,AUC(0-inf),[3]; oral 5 mg/kg,0.246
same,AUC(0-t),[3]; oral 5 mg/kg,0.179
same,Tmax,[3]; oral 5 mg/kg,10.2 min
same,half-life,[3]; oral 5 mg/kg,240 min
same,AUC(0-inf),[3]; oral 10 mg/kg,0.471
same,AUC(0-t),[3]; oral 10 mg/kg,0.31
same,Tmax,[3]; oral 10 mg/kg,10.2 min
same,half-life,[3]; oral 10 mg/kg,336 min
same,AUC(0-inf),[3]; oral 20 mg/kg,2.49
same,AUC(0-t),[3]; oral 20 mg/kg,1.97
same,Tmax,[3]; oral 20 mg/kg,10.2 min
same,half-life,[3]; oral 20 mg/kg,192 min
same,AUC(0-inf),[3]; oral 50 mg/kg,3.38
same,AUC(0-t),[3]; oral 50 mg/kg,2.88
same,Tmax,[3]; oral 50 mg/kg,40.2 min
same,half-life,[3]; oral 50 mg/kg,156 min
same,tumor response,[4]; 3 mg/kg oral,cytostatic growth inhibition
same,"anti-tumor activity, every other week vs daily","[4]; 3 mg/kg oral, 7d on/7d off compared to same dose daily",almost the same anti-tumor growth activity
same,Tumor growth inhibition,[4]; 30 mg/kg BID once weekly (60 mg/kg weekly),approx. 50%
same,Tumor growth inhibition,"[4]; once weekly 60 mg/kg/day as 30 mg/kg BID, 5 weeks, p 0.001",47% (0.001)/**5 weeks
same,cell cycle response,[5],arrested in G1-phase
same,fraction unbound,[6]; dog plasma,0.619
same,fraction unbound,[6]; human plasma,0.547
same,fraction unbound,[6]; mouse plasma,0.574
same,fraction unbound,[6]; rat plasma,0.528
same,DNA damage marker γH2A.X,[7],accumulation of the DNA damage marker γH2A.X
same,DNA damage marker γH2A.X,[8],accumulation of the DNA damage marker γH2A.X
same,DNA damage marker γH2A.X,[9],accumulation of the DNA damage marker γH2A.X
same,Annexin V staining,[10],induction of apoptosis
